Experimental data: US5672584A (priority 1995, dated 1997)
Like-named read-outs stand apart in the source and are kept apart here. Where a SMILES comes first, the peptide text is derived from it. Where no end group is shown, it is not given here.

How the values were obtained:
[1] = HBSS, pH 7.4, 37° C.
[2] = incubated in human blood, pH 7.4, 37° C.
[3] = rat, whole blood, pH 7.4
[4] = system: Caco-2 cell monolayer; conditions: for increase in permeability compared to capped hexapeptide Ac-Trp-Ala-Gly-Gly-Asp-Ala-NH2: Caco-2 Papp ratio; for Papp (apparent permeability coefficient): applied to AP side, flux to BL side of Caco-2 monolayer; for permeation to BL side of the monolayer: AP-to-BL, in the absence or presence of protease inhibitors (bestatin, diprotin, captopril)
[5] = in vitro; conditions: rat, blood, pH 7.4
[6] = human, whole blood, pH 7.4
[7] = human, Caco-2

## C[C@@H]1NC(=O)[C@H](Cc2c[nH]c3ccccc23)NC(=O)OCOC(=O)[C@H](C)NC(=O)[C@H](CC(=O)O)NC(=O)CNC(=O)CNC1=O [1a] (HELM PEPTIDE1{W.A.G.G.D.A}|CHEM1{[O=C(OCO[*:2])[*:1]]}$PEPTIDE1,CHEM1,1:R1-1:R1|PEPTIDE1,CHEM1,6:R2-1:R2$$$V2.0)
[1]
  half-life of chemical stability (T1/2): 3.47 h
[2]
  T1/2 in human blood: 1.65 h
[3]
  half-life: 1.85 h
[4]
  increase in permeability compared to capped hexapeptide Ac-Trp-Ala-Gly-Gly-Asp-Ala-NH2: 5-6 fold
  Papp (apparent permeability coefficient): 1.17±0.11×10^-7 cm/sec.

## Cc1cc(C)c2c(c1)OC(=O)[C@H](C)NC(=O)[C@H](CC(=O)O)NC(=O)CNC(=O)CNC(=O)[C@H](C)NC(=O)[C@H](Cc1c[nH]c3ccccc13)NC(=O)CC2(C)C [1b] (HELM PEPTIDE1{W.A.G.G.D.A}|CHEM1{[Cc1cc(C)c(C(C)(C)CC(=O)[*:1])c(O[*:2])c1]}$PEPTIDE1,CHEM1,1:R1-1:R1|PEPTIDE1,CHEM1,6:R2-1:R2$$$V2.0)
[5]
  half-life: 2.88 h
[1]
  half-life of chemical stability (T1/2): 12.7 h
[6]
  half-life: 2.88 h
[4]
  increase in permeability compared to capped hexapeptide Ac-Trp-Ala-Gly-Gly-Asp-Ala-NH2: 5-6 fold
  Papp (apparent permeability coefficient): 1.21±0.36×10^-7 cm/sec.

## Ac-WAGGDA-NH2 [Ac-Trp-Ala-Gly-Gly-Asp-Ala-NH2, reference compound]
[7]
  remaining at 3 h: 75.8 ± 4%
[4]
  Papp (apparent permeability coefficient): 2.1±0.5×10^-8 cm/sec.

## WAGGDA [Trp-Ala-Gly-Gly-Asp-Ala, reference compound]
[7]
  remaining at 2 h: 0.8 ± 0.1%
[4]
  permeation to BL side of the monolayer: no detectable quantities
[4]; listed as native peptide
  permeation to BL side of the monolayer: totally impermeable
